Activity calls are given as the source filed them.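 How the source made its calls: active means maximal inhibition of USP17 at or above 30% in the confirmation dose-response, a value not among the printed readouts; inactive means the rest.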
target: Ubiquitin carboxyl-terminal hydrolase 17-like protein 5 (Homo sapiens) (UniProt A8MUK1); experiment: ubiquitin-specific protease 17 inhibitors, concentration series, biochemical, verification of primary actives (AID 1645864); conditions: purified USP17, ubiquitin-rhodamine cleavage fluorescence, 3 h
Sequence (A8MUK1 whole entry, looked up): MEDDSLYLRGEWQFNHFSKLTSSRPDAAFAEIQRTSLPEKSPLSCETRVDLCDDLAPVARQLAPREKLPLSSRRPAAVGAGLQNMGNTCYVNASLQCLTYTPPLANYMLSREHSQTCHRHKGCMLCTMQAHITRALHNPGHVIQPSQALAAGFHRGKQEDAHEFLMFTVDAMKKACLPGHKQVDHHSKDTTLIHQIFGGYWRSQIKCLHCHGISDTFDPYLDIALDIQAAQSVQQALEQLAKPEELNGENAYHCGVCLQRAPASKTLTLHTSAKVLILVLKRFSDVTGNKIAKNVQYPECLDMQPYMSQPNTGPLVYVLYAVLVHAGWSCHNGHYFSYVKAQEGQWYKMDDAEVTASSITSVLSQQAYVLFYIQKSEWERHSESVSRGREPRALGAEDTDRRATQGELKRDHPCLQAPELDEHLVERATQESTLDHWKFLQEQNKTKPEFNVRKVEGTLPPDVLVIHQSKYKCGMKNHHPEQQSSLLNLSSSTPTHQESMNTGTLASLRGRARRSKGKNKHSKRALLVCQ

SMILES | IC50
CC1=CC(=O)C(C2=C(O)C(=O)C(C)=CC2=O)=C(O)C1=O | 3.55 µM
Cc1ccc(OCCn2c(=N)n(C(C)C)c3ccccc32)cc1 | > 50 µM (inactive)
COc1ccc(NC(=O)CC(=O)c2ccc([N+](=O)[O-])cc2)cc1S(=O)(=O)Nc1ccc(Cl)cc1 | 24.5 µM
NS(=O)(=O)c1ccc(NS(=O)(=O)c2ccc(NC(=O)Nc3ccc(Cl)cc3)cc2)cc1 | 37.8 µM
O=C1CC(C(=O)Nc2ccccc2Cl)n2nc(-c3ccccc3)cc2N1 (configuration not stated) | 28.7 µM
Cc1c(S(=O)(=O)NC2CCCCNC2=O)sc2ccc(Cl)cc12 (configuration not stated) | 43.1 µM
CN(CCCNC(=O)c1cccc2c1SCCC2=O)c1ccccc1 | > 50 µM (inactive)
CCc1ccc(Nc2cc(C(=O)NCCCOC(C)C)c3ccccc3n2)cc1 | 10.7 µM
COc1ccc(COC(=O)C2=C(C)NC(=O)CC2c2cccc([N+](=O)[O-])c2)cc1 (configuration not stated) | > 50 µM (inactive)
Cc1cc(C2CC(=O)Nc3c2c(C)nn3-c2nc3ccccc3[nH]2)c(C)s1 (configuration not stated) | 23 µM
COc1ccc(-c2nc(SCC(=O)Nc3ccc(Cl)cc3F)n[nH]2)cc1 | 47.5 µM
Cc1nc(Nc2ncc(C)s2)cc(C2CN(C(=O)Cc3ccccc3)CCO2)n1 (configuration not stated) | > 50 µM (inactive)
COC(=O)c1cc(C#N)c(NCc2ccccc2)nc1C | 13.4 µM
Cc1ccc(C)c(NS(=O)(=O)c2cc(-c3cnc(C4CC4)o3)ccc2C)c1 | 42.7 µM
Cc1noc(-c2cc(=O)n(CC(=O)NCc3ccccc3)c3ccccc23)n1 | 45.6 µM
COc1cccc(NC(=O)Nc2nccn(-c3ccc(F)cc3)c2=O)c1 | 13.9 µM
O=C(COC(=O)c1cc(Cl)ccc1O)Nc1ccc2c(c1)OCCO2 | 29.2 µM
CC1=C(c2ccc(F)cc2)S(=O)(=O)NC1=NCC(=O)Nc1ccc(F)cc1 | 40.6 µM
O=C(Nc1cccc(S(=O)(=O)N2CCCC2)c1)c1ccc2c(=O)n3c(nc2c1)CCCCC3 | > 50 µM (inactive)
O=C(NCCCN1CCc2ccccc2C1)c1cc2c(s1)CS(=O)(=O)C2 | > 5 µM (inactive)
CN=C(N)NCCC/C=C/CCCC(C)CC(C)C1OC(=O)/C=C/C(C)C(O)CC(O)C(C)C(O)CCC(C)C(O)CC2(O)OC(CC(OC(=O)CC(=O)O)CC(O)CC(O)C(C)C(O)/C=C/C1C)CC(O)C2O (configuration not stated) | > 50 µM (inactive)
CC1=C(C(=O)Nc2ccccc2C)C(c2ccc(OCc3ccccc3F)cc2)n2ncnc2N1 (configuration not stated) | 34.3 µM
COc1ccc(NC(=O)C2[C@@H]3C(=O)N(C4CCCCC4)C(=O)[C@@H]3[C@H]3c4ccccc4C=CN23)cc1 (some centres not stated) | 46.9 µM
CCn1cc(-c2nc(-c3ccccn3)no2)c(=O)c2cc(F)ccc21 | 32.5 µM
Cc1noc(C)c1S(=O)(=O)Nc1ccc(C(=O)Nc2ccc3c(c2)OCCO3)cc1 | > 50 µM (inactive)

SMILES | IC50
Cc1cc(C)c2cc(CN(CCc3ccccc3)C(=O)Nc3ccccc3)c(=O)[nH]c2c1 | 43.5 µM
Cc1ccc(-n2c(=O)[nH]c3c(C(N)=O)nc(-c4cccnc4)nc32)cc1 | 4.36 µM
Cc1ccc(NC(=O)c2c3c(nc4ccccc24)CCCCC3)c(C)c1 | > 50 µM (inactive)
O=C(CCn1c(=O)c2sccc2n(CC(=O)OCc2ccccc2)c1=O)NCc1ccc2c(c1)OCO2 | 14.1 µM
Cc1ccc(Cn2cc(-c3noc(-c4ccncc4)n3)nn2)cc1 | 28.6 µM
CC1CCc2c(sc3nc(CC#N)[nH]c(=O)c23)C1 (configuration not stated) | > 50 µM (inactive)
COc1ccc(N(CC(=O)Nc2cccc(F)c2)S(=O)(=O)c2ccc(OC)c(OC)c2)cc1 | 25.3 µM
Cc1ccc2c(c1)N=C(c1ccc([N+](=O)[O-])cc1)CO2 | > 50 µM (inactive)
NS(=O)(=O)c1cccc(NS(=O)(=O)c2ccc(/C=C/C(=O)OCC(=O)c3ccc(Br)cc3)cc2)c1 | > 50 µM (inactive)
Cc1cc(N2CCN(c3ncccn3)CC2)nc2ccc(NC(=O)c3ccncc3)cc12 | 2.99 µM
O=C(c1ccco1)N1CCC2(CC1)CC1(CO2)Nc2ccccc2-n2cccc21 (configuration not stated) | 20.6 µM
COc1ccccc1CNC(=O)C1CCCN(c2nc3ccsc3c(=O)s2)C1 (configuration not stated) | 4.2 µM
COc1cc(NC(=O)c2cc(CN3CCOCC3)on2)cc(OC)c1 | > 50 µM (inactive)
COc1ccc(C(C)NC(=O)c2cnc(-c3ccccc3)nc2-c2ccncc2)cc1 (configuration not stated) | > 50 µM (inactive)
Cc1ccc(NC(=O)c2sc(=S)n(CCc3ccccc3)c2N)cc1 | 2.42 µM
CC(OC(=O)c1c2c(nc3ccccc13)CCCCC2)C(=O)Nc1ccc2ccccc2c1 (configuration not stated) | 3.81 µM
Cc1cc(Cl)ccc1Nc1nc(Nc2cccc(F)c2)nc2nccnc12 | > 50 µM (inactive)
C/C=C(\Cl)C1=CC(=O)[C@]23C[C@H]2[C@@]2(C)CO[C@@]1(O)[C@@]3(O)O2 | 28.2 µM
O=C(Cn1cnc(-c2noc(-c3ccncc3)n2)c1)N1CCN(c2ccccc2F)CC1 | > 50 µM (inactive)
CCCCc1nc2sc3c(NCCN4CCOCC4)ncnc3c2c2c1CCC2 | > 50 µM (inactive)
Cc1cc(NCC2CC2)n2nc(Nc3cc(Cl)ccc3C)nc2n1 | 30.4 µM
Cc1ccc(-c2nc(Cn3nnc(-c4nc(-c5ccccn5)no4)c3C)c(C)o2)cc1 | > 50 µM (inactive)
NS(=O)(=O)c1ccc(Cl)c(C(=O)OCc2csc(Nc3ccccc3)n2)c1 | > 50 µM (inactive)
CN(C)S(=O)(=O)N1CCCC2(C1)Nc1cccnc1NC2=NC1CCCC1 (configuration not stated) | > 50 µM (inactive)
COc1ccc2[nH]c3c(c2c1)CCN1C(=O)N(c2ccccc2C(=O)NCc2ccccc2)C(=O)[C@]31C | 34.5 µM

SMILES | IC50
CN(C)c1ccc(/C=N/NC(=O)c2ccc(Cl)cc2)cc1 | 6.27 µM
Cc1ccc(C)c(-n2c(C)cc(/C=C3/C(=N)N4C(c5ccc(F)cc5)=CSC4=NC3=O)c2C)c1 | > 50 µM (inactive)
O=C(Cn1cc(C(=O)C2CC2)c2ccccc21)NCc1ccc2c(c1)OCO2 | 29.1 µM
CCc1ccc(-n2c(=O)c3ccccc3n(CC(=O)NCCC3=CCCCC3)c2=O)cc1 | 17.9 µM
Cc1ccc(S(=O)(=O)c2cnc(SCC(=O)Nc3ccc(Cl)cc3)nc2N)cc1C | 29.8 µM
CCOc1ccccc1NC(=O)COc1cc(OC)ccc1C(=O)c1ccccc1 | > 50 µM (inactive)
O=C(Nc1ccc(Cl)cc1F)c1cc(-c2ccccn2)n[nH]1 | 0.323 µM
CCOc1ccccc1NC(=O)Cn1c(-c2ccc3c(c2)OCO3)cn(-c2ccc(OC)cc2)c1=O | > 50 µM (inactive)
Cc1cc(=O)n(CC(=O)Nc2ccccc2F)c(Nc2ccc(F)cc2)n1 | 12.9 µM
Cc1ccc(CNC(=O)c2cnc3ccccc3n2)cc1 | > 50 µM (inactive)
COc1cc(NC(=O)c2cc(-c3ccncc3)n(-c3ccc(F)cc3)n2)cc(OC)c1 | > 50 µM (inactive)
CCCCCC(O)c1c(O)cc2c(c1O)C(=O)c1c(O)cc(O)cc1C2=O (configuration not stated) | > 50 µM (inactive)
Cc1cc(NC(=O)c2nnn(-c3ccccc3Cl)c2C)no1 | > 50 µM (inactive)
COc1ncccc1CN1CCn2c(Cn3cccn3)cnc2C1C (configuration not stated) | > 50 µM (inactive)
Cc1c(-c2nsc(NC(=O)c3ccc(Cl)cc3)n2)nnn1-c1ccccc1F | 0.674 µM
CCOC(=O)Nc1ccc(N2CCn3c(nc4ccccc43)C2)cc1OC | > 50 µM (inactive)
COc1ccc(CCNc2c(-c3ccccc3O)nc3cnccn23)cc1OC | > 50 µM (inactive)
COc1cc(Cn2cnc3c([nH]c4ccc(Br)cc43)c2=O)cc(OC)c1 | 3.75 µM
O=[N+]([O-])c1ccccc1C(c1c[nH]c2ccccc12)c1c[nH]c2ccccc12 | 24.6 µM
O=[N+]([O-])c1cccc(CSc2nnc(/C=C/c3ccccc3)o2)c1 | > 50 µM (inactive)
NC(=O)c1ccc(NC(=O)Cc2cc(-c3ccc(Cl)cc3)on2)cc1 | > 50 µM (inactive)
O=C(/C=C/c1cnc2ccccc2c1)NCc1ccccc1 | 43.4 µM
COC1=CC(=O)c2c(O)c(C)c(CC(C)=O)c(O)c2C1=O | 2.87 µM
Cc1cc(C)cc(-n2ccnc(SCC(=O)Nc3cccc(Cl)c3)c2=O)c1 | 28.3 µM
O=C(Cc1cccnc1)Nc1ccc(N2CCN(C3CCCCC3)C2=O)nc1 | > 50 µM (inactive)

SMILES | IC50
Cc1nn(Cc2ccccc2)c(Cl)c1C(=O)NC1CCCc2ccccc21 (configuration not stated) | > 50 µM (inactive)
CSc1cccc(NC(=O)COc2cccc3ccccc23)c1 | 2.04 µM
CCc1nc(-c2cccc(NC(=O)c3ccc(C#N)cc3F)c2)no1 | > 50 µM (inactive)
Cc1cc(C(=O)N2CCN(C3CCN(Cc4ccc(Cl)o4)CC3)C(=O)C2)c(C)o1 | > 50 µM (inactive)
COc1cc(COc2ccc3c(C)c(CC(=O)N4CC[C@@]5(O)CCCC[C@H]5C4)c(=O)oc3c2C)cc(OC)c1OC | 38.9 µM
CCc1ccc2[nH]c(=O)c(CN(CCc3ccc(OC)c(OC)c3)C(=O)Nc3ccccc3)cc2c1 | > 50 µM (inactive)
COc1cc2c(c(OCC(=O)Nc3ccc4c(c3)OCCO4)c1)C(=O)O[C@@H](C)CCCC(=O)CCCCC2 | 23.1 µM
Cc1noc(C)c1COc1cccc(C(=O)Nc2cc(Cl)ccc2-n2cncn2)c1 | > 50 µM (inactive)
COc1ccccc1-c1nc2c3c(C)c(C)n(-c4ccc(Br)cn4)c3ncn2n1 | 0.567 µM
CC(=O)c1ccc(N2C(=O)N(Cc3cccc([N+](=O)[O-])c3)c3ccccc3S2(=O)=O)cc1 | > 50 µM (inactive)
CC(=O)c1ccc(NC(=O)CC2C(=O)Nc3nc4ccccc4n32)cc1 (configuration not stated) | 32.5 µM
COc1ccc(CNC(=O)c2ccccc2N2C(=O)N3CCc4c([nH]c5ccccc45)[C@@]3(C)C2=O)cc1 | 29.8 µM
c1ccc2c(c1)ccc1nnc(-c3ccc4c(c3)OCO4)n12 | > 50 µM (inactive)
Cc1cc(C(=O)Nc2cc(C)n(Cc3ccc(Cl)cc3)n2)no1 | > 50 µM (inactive)
CC(=O)N1CCc2cc(S(=O)(=O)NC(Cc3ccccc3)C(=O)Nc3cccc(Cl)c3C)ccc21 (configuration not stated) | 12.9 µM
Cc1ccc(NC(=O)c2nnn(-c3ccccc3Br)c2C)cc1C | > 50 µM (inactive)
CCc1c(C)c(C#N)c2nc3ccccc3n2c1N1CCN(C2CCCC2)CC1 | 3.06 µM
O=C(Cn1c(=O)n(Cc2ccc3c(c2)OCO3)c(=O)c2ncccc21)c1ccc(Cl)cc1 | 33 µM
Nc1ncnc(SCc2ccc(Cl)cc2)n1 | 27.1 µM
COc1ccc(C)cc1NC(=O)CSc1nc(C)nc2c1oc1ccccc12 | 22.3 µM
CC(c1ccccc1)c1nc(-c2ccc(=O)[nH]c2)no1 (configuration not stated) | > 50 µM (inactive)
Cc1ccc(C)c(S(=O)(=O)N2CCC3(CC2)NC(=O)c2ccccc2N3)c1 | 46.1 µM

— PubChem BioAssay AID1645864 (Buhrlage Lab, Dana-Farber Cancer Institute and Novartis …, 2021)
